In ChEMBL document CHEMBL5113385, “Natural products and synthetic analogues against HIV: A perspective to develop new potential anti-HIV drugs” (Eur J Med Chem, 2022):
In brackets after ≈: the same amount, converted by molar mass.

What was measured:
[1] = target: T1, Human immunodeficiency virus type 1 reverse transcriptase (Human immunodeficiency virus 1, UniProt Q72547); assay: Inhibition of recombinant HIV-1 reverse transcriptase using ABTS as substrate incubated for 1 hr by ELISA
[2] = test system: Human immunodeficiency virus 1; assay: Antiviral activity against HIV-1 IIIB infected in human MT4 cells assessed as reduction in cytopathic effect measured after 5 days by Cell Titer Glo assay; assay type: functional, organism-based; settings: Human immunodeficiency virus 1, IIIB, MT4, 120 h
[3] = target: Human immunodeficiency virus type 1 reverse transcriptase (Human immunodeficiency virus 1) (UniProt Q72547); assay: Displacement of [3H]TTP/polyA from HIV-1 reverse transcriptase at 200 ug/ml relative to control; settings: dose 200.0 µg/ml
[4] = target: Human immunodeficiency virus type 1 protease (Human immunodeficiency virus 1) (UniProt Q72874); assay: Inhibition of HIV-1 protease relative to control; settings: concentration not given here
C8166 = assay: Cytotoxicity against human C8166 cells assessed as reduction in cell viability by MTT assay; assay type: functional
[5] = test system: Human immunodeficiency virus 1; assay: Antiviral activity against HIV-1 infected in human C8166 cells assessed as reduction in virus-induced cytopathic effect by MTT assay; assay type: functional, organism-based; settings: Human immunodeficiency virus 1, C8166
[6] = target: T1, Human immunodeficiency virus type 1 reverse transcriptase; assay: Inhibition of HIV-1 reverse transcriptase using ABTS as substrate and RNA template primed with oligo(dT)12-18 in presence of digoxigenin/biotin-labeled nucleotides by ELISA
[7] = target: Human immunodeficiency virus type 1 reverse transcriptase (Human immunodeficiency virus 1) (UniProt Q72547); assay: Inhibition of recombinant HIV-1 reverse transcriptase at 200 ug/ml by ELISA relative to control; settings: dose 200.0 µg/ml
Influenza A virus = assay: Antiviral activity against Influenza virus A/Puerto Rico/8/34 (H1N1) infected in MDCK cells assessed as reduction in viral titer preincubated for 1 hr followed by viral infection at MOI of 0.01 for 24 hrs and subsequent addition of culture medium and incubated for 48 hrs followed by addition of chicken erythrocytes measured after 40 mins by agglutination method; assay type: functional, organism-based
[8] = test system: Human immunodeficiency virus 1; assay: Antiviral activity against HIV-1 NL4-3 infected in human MT4 cells assessed as reduction in viral replication incubated for 48 hrs followed by addition of fresh medium containing compound measured after 2 days by ELISA; assay type: functional, organism-based; settings: Human immunodeficiency virus 1, NL4-3, MT4, 48 h
[9] = Inhibition of wild-type HIV-1 BH10 reverse transcriptase-associated RNase H expressed in Escherichia coli using [gamma-32P]ATP-labeled 31Trna/21P as template/primer preincubated for 5 mins followed by template/primer addition by PAGE analysis; parameters: species or system Human immunodeficiency virus 1
[10] = test system: Human immunodeficiency virus 1; assay: Antiviral activity against HIV-1 assessed as viral growth inhibition; assay type: functional, organism-based
[11] = target: T1, Human immunodeficiency virus type 1 reverse transcriptase; assay: Inhibition of HIV-1 LTR reverse transcriptase infected in human CEM cells using RNA template incubated for 1 hr by RT-PCR based cell-free assay
[12] = test system: Human immunodeficiency virus 1; assay: Antiviral activity against HIV-1 infected in human CEM-GFP cells assessed as inhibition of viral replication incubated for 68 hrs by MTT assay; assay type: functional, organism-based; settings: Human immunodeficiency virus 1, CEM-GFP
[13] = target: T1, Human immunodeficiency virus type 1 reverse transcriptase; assay: Inhibition of HIV-1 reverse transcriptase preincubated for 45 mins followed by substrate addition by immunoassay
[14] = test system: Human immunodeficiency virus 1; assay: Antiviral activity against patient-derived wild-type HIV-1 infected in human CEM-T4 cells assessed as inhibition of viral replication preincubated for 24 hrs followed by viral infection measured after 7 days by ELISA; assay type: functional, organism-based; settings: Human immunodeficiency virus 1, CEM-T4

O=C(O)[C@]1(O)C[C@H](O)[C@@H](O)[C@@H](O)C1 showed an IC50 [1] of 280 µM.

COc1cc(F)c(C(=O)c2cc(N)nc(Nc3ccc(C#N)cc3)n2)c(F)c1 gave an IC50 [2] of 0.0042 µM.

Work on O=c1cc(-c2ccc(O)c(O)c2)oc2c([C@@H]3O[C@H](CO)[C@@H](O)[C@H](O)[C@H]3O)c(O)cc(O)c12 yielded an inhibition [3] of 52%.

In the case of C=C(C)[C@@H]1CC[C@@H]2[C@]3(CC[C@]4(C)[C@@H]([C@H](C)CC/C=C(/C)C(=O)O)CC[C@@]24C)C[C@]13CCC(=O)O, the inhibition [4] is reported as 89.2%.

In the case of C=CC(C)(C)c1cc2cc(C[C@@H](O)C(C)(C)O)c(O)cc2oc1=O, the CC50 (C8166) is reported as > 200 µM.

C=CC(CO)[C@@H]1C[C@H]2c3[nH]c4ccccc4c3CCN2C(=O)[C@H]1CO (stereo partly drawn) gave an EC50 [5] of 12.2 µM.

COC(=O)/C=C\c1c(-c2cccs2)[nH]c2ccccc12 gave an IC50 [6] of 0.00938 µM.

COc1cc(F)c(Oc2cc(N)nc(Nc3ccc(C#N)cc3)n2)c(F)c1 showed an IC50 [2] of 0.003 µM.

In the case of CC(C)=CCc1cc(/C=C/C(=O)O)cc(CC=C(C)C)c1, the inhibition [7] is reported as 41.6%.

For Cc1cn([C@H]2C[C@H](n3cc(Cn4nnnc4CC(=O)N(C)C)nn3)[C@@H](CO)O2)c(=O)[nH]c1=O, the IC50 (Influenza A virus) was 39.6 mg/L (≈ 86 µM).

In the case of C=CC(CO)[C@@H]1C[C@H]2c3[nH]c4ccccc4c3CCN2C(=O)[C@@H]1CO (stereo partly drawn), the EC50 [5] is reported as 12.2 µM.

Work on CCCCC/C=C\C=C/O[C@@]12[C@@H]([C@H]3OCO[C@@]3(C(C)=O)[C@H](OC(C)=O)[C@H]1C)[C@@H]1O[C@]1(CO)[C@@H](O)[C@]1(O)C(=O)C(C)=C[C@H]12 yielded an IC50 [8] of 0.0009 µM.

Nc1ccc(S(=O)(=O)N2CCN(C(=O)c3cc(O)c(O)c(O)c3)CC2)cc1 showed an IC50 [9] of 0.72 µM.

O=C1C[C@@H](c2ccc(O)cc2)Oc2cc(O)cc(O)c21 showed an inhibition [7] of 44.2%.

Work on COc1cc(-c2oc3cc(O)cc(O)c3c(=O)c2O)ccc1O yielded an inhibition [7] of 57%.

In the case of CC1=C(C(=O)OCc2ccccc2)C(c2ccc(Cl)c([N+](=O)[O-])c2)NC(=O)N1 (stereo not drawn), the IC50 [10] is reported as 15 mg/L.

With CCn1cc(C(=O)O)c(=O)c2cc(F)c(N3CCN(S(=O)(=O)c4ccc(OC)cc4)CC3)cc21 the IC50 [10] was 0.05 µM.

With C=C(CO)[C@@H]1Cc2cc3ccc(=O)oc3cc2O1 the CC50 (C8166) was > 200 µM.

C#CCOCc1cn(C2CCON2C(=O)OCc2ccccc2)c(=O)[nH]c1=O (stereo not drawn) showed an IC50 [11] of 0.05 µM.

With Cc1cc(=O)c2ccc(N=C=S)cc2o1 the IC50 [12] was 1 µM.

With C=C(C)[C@]12C[C@@H](COC(C)=O)[C@@]34OC5(O[C@@H]1[C@@H]3[C@@H]1O[C@]1(CO)[C@@H](O)[C@@]1(O)[C@H]4[C@H]([C@H](C)[C@@H]1C(=O)c1ccccc1)[C@H](C)C[C@H](C(=O)c1ccccc1)[C@H](C(=O)c1ccccc1)CCC[C@H]5O)O2 the IC50 [8] was ≤ 0.00025 µM.

Compound CC1=C(C(=O)OCc2ccccc2)C(c2cccc(C(F)(F)F)c2)NC(=O)N1 (stereo not drawn) has an IC50 [10] of 15 mg/L.

With CC(=O)[C@@H]1Cc2cc3ccc(=O)oc3cc2O1 the CC50 (C8166) was > 200 µM.

For CO[C@H](Cc1cc2ccc(=O)oc2cc1O)C(C)(C)O, the CC50 (C8166) was > 200 µM.

CCOc1ccc(S(=O)(=O)N2CCN(c3cc4c(cc3F)c(=O)c(C(=O)O)cn4CC)CC2)cc1 gave an IC50 [10] of 0.08 µM.

In the case of O=C1CSC(c2ccc(O)cc2)N1c1nc2ccc(Cl)cc2s1 (stereo not drawn), the IC50 [13] is reported as 0.3 µM.

O=c1cc(-c2ccc(O)cc2)oc2c([C@@H]3O[C@H](CO)[C@@H](O)[C@H](O)[C@H]3O)c(O)cc(O)c12 gave an inhibition [3] of 56.9%.

C=C(CP(=O)(OCC)OCC)[C@@H]1CC[C@]2(C(=O)O)CC[C@]3(C)[C@H](CC[C@@H]4[C@@]5(C)CC[C@H](OC(=O)CC(C)(C)C(=O)O)C(C)(C)[C@@H]5CC[C@]43C)[C@@H]12 showed an IC50 [14] of 0.3 µM.
